From US9402821B2, “Methods and pharmaceutical compositions for treatment of cystic fibrosis” (INSERM (Institut National de la sante et de la Recherche …, priority 2012, dated 2016)

Target: T1, ENaC (Homo sapiens, UniProt P37088+P51168+P51170)
T1 construct: endogenous in cells; host or cells: primary human nasal epithelial cells (HNEC)
T1 sequence (P37088 1-669): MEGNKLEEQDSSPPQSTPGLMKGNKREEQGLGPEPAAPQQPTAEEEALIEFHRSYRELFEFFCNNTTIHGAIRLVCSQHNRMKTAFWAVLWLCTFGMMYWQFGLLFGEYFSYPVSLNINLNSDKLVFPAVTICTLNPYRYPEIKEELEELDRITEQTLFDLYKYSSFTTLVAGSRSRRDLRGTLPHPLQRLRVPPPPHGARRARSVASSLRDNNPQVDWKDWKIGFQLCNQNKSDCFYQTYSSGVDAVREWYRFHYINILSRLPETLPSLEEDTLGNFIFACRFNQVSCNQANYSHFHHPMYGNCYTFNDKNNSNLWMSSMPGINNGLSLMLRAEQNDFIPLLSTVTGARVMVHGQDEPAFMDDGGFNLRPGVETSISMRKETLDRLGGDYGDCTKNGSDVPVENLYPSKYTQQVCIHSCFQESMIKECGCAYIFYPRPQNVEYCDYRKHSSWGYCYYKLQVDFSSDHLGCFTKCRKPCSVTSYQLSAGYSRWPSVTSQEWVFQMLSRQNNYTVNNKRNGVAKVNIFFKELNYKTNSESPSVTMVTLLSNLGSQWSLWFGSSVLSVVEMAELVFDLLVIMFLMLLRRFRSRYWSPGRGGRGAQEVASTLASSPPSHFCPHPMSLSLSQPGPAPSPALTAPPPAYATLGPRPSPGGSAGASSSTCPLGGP
T1 sequence (P51168 1-640): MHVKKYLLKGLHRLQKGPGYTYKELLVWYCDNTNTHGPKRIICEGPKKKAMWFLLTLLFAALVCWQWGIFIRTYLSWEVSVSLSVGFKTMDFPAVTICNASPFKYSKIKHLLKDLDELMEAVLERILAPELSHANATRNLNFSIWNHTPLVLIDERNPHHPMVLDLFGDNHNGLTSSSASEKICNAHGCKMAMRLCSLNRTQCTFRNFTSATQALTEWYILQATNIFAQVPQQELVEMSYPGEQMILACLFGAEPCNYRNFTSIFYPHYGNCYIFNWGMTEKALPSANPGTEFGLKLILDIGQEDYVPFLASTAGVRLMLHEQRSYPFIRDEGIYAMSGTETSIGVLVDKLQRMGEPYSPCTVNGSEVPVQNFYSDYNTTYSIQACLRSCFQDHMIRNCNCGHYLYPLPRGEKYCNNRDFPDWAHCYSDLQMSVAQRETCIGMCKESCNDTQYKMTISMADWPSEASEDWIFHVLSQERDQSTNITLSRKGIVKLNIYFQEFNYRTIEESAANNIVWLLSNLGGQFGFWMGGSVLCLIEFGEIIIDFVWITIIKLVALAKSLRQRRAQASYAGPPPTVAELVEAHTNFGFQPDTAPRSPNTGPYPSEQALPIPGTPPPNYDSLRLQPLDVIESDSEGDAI
T1 sequence (P51170 1-649): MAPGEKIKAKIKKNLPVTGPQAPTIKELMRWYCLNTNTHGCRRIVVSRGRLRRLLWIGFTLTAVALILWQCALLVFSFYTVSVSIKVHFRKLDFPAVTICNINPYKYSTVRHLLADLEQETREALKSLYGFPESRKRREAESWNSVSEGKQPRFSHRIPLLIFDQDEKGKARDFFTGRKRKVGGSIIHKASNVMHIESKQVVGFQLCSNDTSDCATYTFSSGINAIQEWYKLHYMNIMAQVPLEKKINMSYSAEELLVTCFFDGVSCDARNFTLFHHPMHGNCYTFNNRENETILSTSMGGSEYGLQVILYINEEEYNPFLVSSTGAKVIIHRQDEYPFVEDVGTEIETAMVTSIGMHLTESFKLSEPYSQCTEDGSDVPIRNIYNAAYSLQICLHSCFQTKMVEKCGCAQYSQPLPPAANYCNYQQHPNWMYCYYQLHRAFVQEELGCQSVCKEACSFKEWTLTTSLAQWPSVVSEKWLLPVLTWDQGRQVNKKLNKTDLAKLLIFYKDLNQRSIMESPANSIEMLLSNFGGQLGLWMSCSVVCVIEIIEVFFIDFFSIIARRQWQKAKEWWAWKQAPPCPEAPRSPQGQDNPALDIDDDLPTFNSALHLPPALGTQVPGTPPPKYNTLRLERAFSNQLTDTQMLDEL
Test: Short circuit current, amiloride sensitive transport in HNEC
Format: cell-based
Details: primary HNEC; 500 μM basolateral, 2 h
Method: B. Chloride activity in HeLa Wt cells was measured by MQAE assay, after 3 h of treatment by NSAID (500 μM) or diluent. CFTR activity was expressed in rate of UFA/sec, calculated by difference between ((Ft−F0)/t) with CFTR induction and ((Ft−F0)/t) without CFTR induction. […] C. Primary culture of human nasal epithelial cell (HNEC) grown on Snapwell filters (air-liquid interface) were exposed basolaterally to sulindac (500 μM) or vehicle for 2 h and immediately mounted into a voltage-clamp system to bioelectric measurements. Short circuit current was measured with addition of amiloride to evaluated amiloride sensitive transport or with forskolin and IBMX for induced cAMP-dependent Cl secretion.
Two cell models were used to the interface air-liquid model for ionic efflux assays by short circuit current and to dose the basolateral IL-8 secretion. Calu-3 are derived from lung adenocarcinoma and are able to polarized and express a high rate of endogenous CFTR. […] Transepithelial resistance and transepithelial potential difference were measured every 3 days using a microvoltmeter (World Precision Instruments, Astonbury, UK).
Cells were grown at 37° C. in a 5% CO2 incubator in DMEM with Glutamax (Invitrogen) and 10% fetal bovine serum (SVF). […] The effects of treatment in HNEC cultures on snapwell inserts were evaluated between days 10 and 16. […]

Compound: CC1=C(CC(=O)O)c2cc(F)ccc2/C1=C\c1ccc([S+](C)[O-])cc1 (stereo not shown) [sulindac, (Z)-5-fluoro-2-methyl-1-[p-(methylsulfinyl)benzylidene]-indene-3-acetic acid]
- ENaC activity (amiloride sensitive short circuit current): not induced modification of ENaC activity
